Data on 5 compounds can be found in article PMC5814268, “Antitumor activity of HPA3P through RIPK3-dependent regulated necrotic cell death in colon cancer” (Oncotarget, 2018).

Common to all, as to assay type: cell-based, human
One series has as its system colon cancer cell lines. Kind of series: MTT assay, cell viability in colon cancer cell lines. As to conditions: comparison of HPA3P with anticancer drugs. As to the method:
(§1) The cells were plated in 96-well plates at a density of 2 × 10^4 cells per well. After incubating overnight, the cells were treated with HPA3, HPA3P, HPA3P2, oxaliplatin, and 5-FU at various concentrations. After the cells had incubated for 6 h or 24 h, the culture medium was replaced with fresh medium. Twenty microlitres of a 5 mg/ml stock solution of 3-(4,5-dimetylthiazol-2-yl)-2,5-diphenyltetrazolium bromide (Sigma Aldrich) was added to each well, and the cells were incubated for 1 h at 37°C in a humidified atmosphere of 5% CO2. After removal of the supernatant, 100 μl of DMSO was added to each well. The plates were subsequently incubated on a horizontal shaker for 20 min at room temperature, and the optical density was measured at an absorbance of 570 nm using a microplate reader (SPECTRA MAX PLUS, Molecular Devices, CA, USA).
A general note: Tetrazolium dyes change colour on reduction, which living cells bring about.

Series [1] relates to HCT116 p53+/+ cells. Briefly: MTT assay, HCT116 p53+/+. As to conditions: for restoration of cell viability in HPA3P-treated cells: pretreated with 30 μM Nec-1s or 3 μM GSK΄872 for 2 h, then HPA3P, Figure 5B-5C. Here is the method: The cell lysates were analysed for RIPK1 and RIPK3 expression by western blotting. […] The cells were subsequently treated with HPA3P. HPA3P-induced cytotoxicity was measured by MTT assay. […] The cell lysates were analysed by western blot analysis. […] The cells were stained with PI for flow cytometric analysis. (F) The cells were treated with 30 μM HPA3P for the indicated times. RIPK3 expression was analysed by western blotting. […] Cell viability was measured by MTT assay. ^*p < 0.05, ^**p < 0.01 indicate a significant difference between the indicated groups. NS, not significant. (H) The colon cancer cell lysates used in this study were analysed by western blotting. (I) Schematic diagram of HPA3P-induced necroptosis.
as §1

The test system of a further series is RIPK3. Kind of series: RIPK3 expression, western blot in HCT116 p53+/+ cells. The settings on record: 3 μM GSK΄872 pretreatment, Figure 5C. Here is the method:
Figure 5 Low concentrations of HPA3P induce RIPK3-dependent necroptosis in HCT116 p53^+/+ cells (A) HCT116 p53^+/+ cells were treated with HPA3P for 6 h. The cell lysates were analysed for RIPK1 and RIPK3 expression by western blotting. The cells were pretreated with 30 μM Nec-1s (B) or 3 μM GSK΄872 (C) for 2 h and (D) transfected with negative-control (scramble), RIPK1, RIPK3, and MLKL siRNA for 24 h. The cells were subsequently treated with HPA3P. HPA3P-induced cytotoxicity was measured by MTT assay. (B–D) The cells were treated with Nec-1s or GSK΄872, and transfected with siRNA for 24 h. The cell lysates were analysed by western blot analysis. (E) The cells were treated with 3 μM GSK΄872 for 2 h and subsequently treated with 30 μM HPA3P for 6 h. The cells were stained with PI for flow cytometric analysis. […] RIPK3 expression was analysed by western blotting. […] Cell viability was measured by MTT assay. ^*p < 0.05, ^**p < 0.01 indicate a significant difference between the indicated groups. […] (H) The colon cancer cell lysates used in this study were analysed by western blotting. […]
The cells were plated in 6-well plates at a density of 1 × 10^6 cells per well. […] After incubating for 6 h or 24 h, the cells were scraped, and the proteins were quantified by the Bradford method. […] The reaction was detected using a Clarity™ Western ECL Substrate (BioRad, CA, USA). […]
A general note: Immunoblotting shows a protein as a band on a membrane.

Series [2] relates to HCT116 p53+/+ cells. Briefly: PI staining analysed by flow cytometry, HCT116 p53+/+. The settings on record: 3 μM GSK΄872 for 2 h and/or 30 μM HPA3P for 6 h, Figure 5E. As to the method:
Figure 3 HPA3P-induced necrosis and morphological changes in human colon cancer cell lines All cell lines were treated with HPA3P for 30 min and then stained with Hoechst 33342/PI or PI alone. (A) Pictures of Hoechst 33342/PI-stained cells were taken using an Olympus IX71 fluorescence microscope (magnification LCAch N 20X). (B) PI-stained cells were analysed by flow cytometry. (C) Morphological changes in colon cancer cells treated with HPA3P for 5 min were observed using an Olympus IX71 light microscope (magnification LUCPlaFL N 40X). The black arrows indicate membrane blebs. […] Morphological changes were observed under an Olympus IX71 fluorescence microscope (magnification LUCPlaFL N 40X). […]
Figure 5 Low concentrations of HPA3P induce RIPK3-dependent necroptosis in HCT116 p53^+/+ cells (A) HCT116 p53^+/+ cells were treated with HPA3P for 6 h. The cell lysates were analysed for RIPK1 and RIPK3 expression by western blotting. […] HPA3P-induced cytotoxicity was measured by MTT assay. […] The cell lysates were analysed by western blot analysis. […] RIPK3 expression was analysed by western blotting. […] Cell viability was measured by MTT assay. ^*p < 0.05, ^**p < 0.01 indicate a significant difference between the indicated groups. […] (H) The colon cancer cell lysates used in this study were analysed by western blotting. […]
Background: A flow cytometer gives signals particle by particle.

Another series concerns LoVo cells. Kind of series: MTT assay, LoVo. The settings on record: 24 h, Figure 4E. As to the method:
as §1

The subject of the next series is HT-29 cells. Kind of series: MTT assay, HT-29. The settings on record: HT-29, 24 h, Figure 4E. Here is the method:
as §1

For the next series, the system named is SW480 cells. Briefly: MTT assay, SW480. As to conditions: SW480, 24 h, Figure 4E. As to the method:
as §1

The test system of series [3] is cleaved-caspase 3 and cleaved-PARP. Kind of series: Western blot for apoptosis markers in colon cancer cell lines. As to conditions: whole-cell lysates, 24 h, staurosporine as positive control, Figure 1C. Here is the method:
The cells were plated in 6-well plates at a density of 1 × 10^6 cells per well. After incubating overnight, the cells were treated with HPA3P at the indicated concentration. After incubating for 6 h or 24 h, the cells were scraped, and the proteins were quantified by the Bradford method. The proteins were resolved on SDS-PAGE and transferred to PVDF membranes (Millipore, Bedford, USA). The blots were blocked with TBST containing 5% skim milk for 1 h, after which the membranes were incubated overnight at 4°C with primary antibodies against cleaved caspase-3 (#9664), PARP (#9542, Cell Signaling Technology, MA, USA), HMGB1 (ab18256, Abcam, Cambridge, UK), and GAPDH (SC-25778, Santa Cruz, CA, USA). The blots were then washed with TBST buffer and incubated with a secondary horseradish peroxidase-conjugated antibody (Santa Cruz, CA, USA). The reaction was detected using a Clarity™ Western ECL Substrate (BioRad, CA, USA).

Take `O=c1[nH]cc(F)c(=O)[nH]1` [5-FU]: the cell viability entry with colon cancer cell lines (6 h, Figure 4D) is reported as “no effect on cell viability”; in the series with colon cancer cell lines (24 h, Figure 4E), “no effect on cell viability”.
Take `CC(C)S(=O)(=O)c1ccc2nccc(Nc3ccc4scnc4c3)c2c1` [GSK΄872]: the “protective effect on HPA3P-mediated cytotoxicity” value with HCT116 p53+/+ cells [1] (pretreated with 3 μM GSK΄872 for 2 h, then HPA3P for 24 h, Figure 5G) is “inhibited HPA3P-induced cytotoxicity”. Further, in the series on HCT116 p53+/+ cells [1], the “restoration of cell viability in HPA3P-treated cells” value was “restored cell viability”. Further, in the series on RIPK3, the “effect on HPA3P-induced increases in RIPK3 expression” value is given as “inhibited”. In the series on HCT116 p53+/+ cells [2], the “PI staining, gate P1” value was 91.47% and the “PI staining, gate P2” value came out at 7.34%.
Regarding `CN1C(=O)NC(Cc2c[nH]c3c(Cl)cccc23)C1=O` (centres unmarked) [Nec-1s], the “restoration of cell viability in HPA3P-treated cells” value in the series with HCT116 p53+/+ cells [1] is on record as “did not restore cell viability”.
On to `O=C1[O][Pt]2([NH][C@@H]3CCCC[C@H]3[NH]2)[O]C1=O` [oxaliplatin, Oxaliplatin], for which the cell viability result is “significant decrease in cell viability” in the series on LoVo cells; “significant decrease in cell viability” in the series on HCT116 p53+/+ cells [1] (24 h, Figure 4E); “reduced cell viability only slightly” in the series with HT-29 cells; “no effect on cell viability” in the series with colon cancer cell lines (6 h, Figure 4D); “significant decrease in cell viability” in the series on SW480 cells.
Consider `CN[C@@H]1C[C@H]2O[C@@](C)([C@@H]1OC)n1c3ccccc3c3c4c(c5c6ccccc6n2c5c31)C(=O)NC4` [staurosporine], for which the “cleaved-caspase 3 and cleaved-PARP” value in series [3] is “detected”.
